# According to patent publication US7067508B2, “Diaminedithiol derivatives and radiorhenium or radiotechnetium complex thereof; a liver cancer-treating composition comprising the radiorhenium complex and lipiodol; and a kit for preparation of the liver cancer-treating composition” (Seoul National University Industry Foundation, priority 2001, dated 2006):
# Assay: Biodistribution of 188Re-labelled compounds in lipiodol solution in mice after tail vein injection
# Format: in vivo
# Settings: mice (ICR)
# Protocol: To the ^188Re-labelled reaction mixture prepared in the foregoing Examples 4 to 6, lipiodol (5 ml) was added, mixed well and the solution was centrifuged at 3000 rpm for 10 min. The supernatant was removed and 2 ml saline was added. After mixing well, the resulting solution was centrifuged again at 3000 rpm for 10 min and the supernatant was removed to recover a lower phase of lipiodol.
# Mice (ICR) were administered with an injection of ^188Re-labelled compound in lipiodol solution which was prepared in the Example 7 via the tail vein. Radioactivity distributed in tissues and weight of each tissue were measured to calculate the percentage of radioactivity per gram of unit tissue relative to total radioactivity administered.
# As radiation accumulation mechanism in the lung and the liver cancer are similar, it is convenient to detect the level of radiation accumulating in the lung of a mouse suffering from liver cancer. […] Therefore, it can be inferred that a radiorhenium complex of a diaminedithiol derivative having a long side chain is effective for treating liver cancer.
compound,measurement,setting,value
CCCCCCCCCCCC[N+]12CC[N]3CC(C)(C)[S][188Re-]31(=[O])[S]C(C)(C)C2 (stereo not shown) [^188Re-DTDD],"Biodistribution, radioactivity in Blood",10 min post-injection,13.0 ± 0.6 percentage of radioactivity per gram
same,"Biodistribution, radioactivity in Fat",10 min post-injection,5.5 ± 0.4 percentage of radioactivity per gram
same,"Biodistribution, radioactivity in Heart",10 min post-injection,9.1 ± 2.3 percentage of radioactivity per gram
same,"Biodistribution, radioactivity in Kidney",10 min post-injection,9.9 ± 0.7 percentage of radioactivity per gram
same,"Biodistribution, radioactivity in Liver",10 min post-injection,14.9 ± 0.7 percentage of radioactivity per gram
same,"Biodistribution, radioactivity in Lung",10 min post-injection,137.4 ± 13.1 percentage of radioactivity per gram
same,"Biodistribution, radioactivity in Muscle",10 min post-injection,2.4 ± 0.1 percentage of radioactivity per gram
same,"Biodistribution, radioactivity in Small intestine",10 min post-injection,4.8 ± 0.3 percentage of radioactivity per gram
same,"Biodistribution, radioactivity in Spleen",10 min post-injection,5.6 ± 0.3 percentage of radioactivity per gram
same,"Biodistribution, radioactivity in Stomach",10 min post-injection,18.3 ± 4.4 percentage of radioactivity per gram
same,"Biodistribution, radioactivity in Blood",30 min post-injection,9.5 ± 1.1 percentage of radioactivity per gram
same,"Biodistribution, radioactivity in Fat",30 min post-injection,4.4 ± 0.8 percentage of radioactivity per gram
same,"Biodistribution, radioactivity in Heart",30 min post-injection,5.0 ± 0.9 percentage of radioactivity per gram
same,"Biodistribution, radioactivity in Kidney",30 min post-injection,7.4 ± 0.5 percentage of radioactivity per gram
same,"Biodistribution, radioactivity in Liver",30 min post-injection,14.6 ± 2.2 percentage of radioactivity per gram
same,"Biodistribution, radioactivity in Lung",30 min post-injection,85.1 ± 7.1 percentage of radioactivity per gram
same,"Biodistribution, radioactivity in Muscle",30 min post-injection,2.0 ± 0.2 percentage of radioactivity per gram
same,"Biodistribution, radioactivity in Small intestine",30 min post-injection,8.3 ± 0.7 percentage of radioactivity per gram
same,"Biodistribution, radioactivity in Spleen",30 min post-injection,4.8 ± 0.4 percentage of radioactivity per gram
same,"Biodistribution, radioactivity in Stomach",30 min post-injection,36.0 ± 5.9 percentage of radioactivity per gram
same,"Biodistribution, radioactivity in Blood",1 hr post-injection,7.0 ± 0.8 percentage of radioactivity per gram
same,"Biodistribution, radioactivity in Fat",1 hr post-injection,4.1 ± 0.6 percentage of radioactivity per gram
same,"Biodistribution, radioactivity in Heart",1 hr post-injection,5.5 ± 0.4 percentage of radioactivity per gram
same,"Biodistribution, radioactivity in Kidney",1 hr post-injection,6.2 ± 0.7 percentage of radioactivity per gram
same,"Biodistribution, radioactivity in Liver",1 hr post-injection,13.2 ± 2.8 percentage of radioactivity per gram
same,"Biodistribution, radioactivity in Lung",1 hr post-injection,82.2 ± 15.1 percentage of radioactivity per gram
same,"Biodistribution, radioactivity in Muscle",1 hr post-injection,1.5 ± 0.3 percentage of radioactivity per gram
same,"Biodistribution, radioactivity in Small intestine",1 hr post-injection,9.7 ± 1.2 percentage of radioactivity per gram
same,"Biodistribution, radioactivity in Spleen",1 hr post-injection,3.5 ± 0.5 percentage of radioactivity per gram
same,"Biodistribution, radioactivity in Stomach",1 hr post-injection,49.2 ± 7.0 percentage of radioactivity per gram
same,"Biodistribution, radioactivity in Blood",3 hr post-injection,5.1 ± 1.2 percentage of radioactivity per gram
same,"Biodistribution, radioactivity in Fat",3 hr post-injection,2.4 ± 0.4 percentage of radioactivity per gram
same,"Biodistribution, radioactivity in Heart",3 hr post-injection,2.7 ± 0.7 percentage of radioactivity per gram
same,"Biodistribution, radioactivity in Kidney",3 hr post-injection,5.2 ± 0.7 percentage of radioactivity per gram
same,"Biodistribution, radioactivity in Liver",3 hr post-injection,7.7 ± 0.6 percentage of radioactivity per gram
same,"Biodistribution, radioactivity in Lung",3 hr post-injection,61.9 ± 10.3 percentage of radioactivity per gram
same,"Biodistribution, radioactivity in Muscle",3 hr post-injection,1.0 ± 0.2 percentage of radioactivity per gram
same,"Biodistribution, radioactivity in Small intestine",3 hr post-injection,11.6 ± 0.3 percentage of radioactivity per gram
same,"Biodistribution, radioactivity in Spleen",3 hr post-injection,2.9 ± 0.6 percentage of radioactivity per gram
same,"Biodistribution, radioactivity in Stomach",3 hr post-injection,37.7 ± 12.3 percentage of radioactivity per gram
same,"Biodistribution, radioactivity in Blood",24 hr post-injection,0.6 ± 0.2 percentage of radioactivity per gram
same,"Biodistribution, radioactivity in Fat",24 hr post-injection,0.6 ± 0.2 percentage of radioactivity per gram
same,"Biodistribution, radioactivity in Heart",24 hr post-injection,1.5 ± 0.3 percentage of radioactivity per gram
same,"Biodistribution, radioactivity in Kidney",24 hr post-injection,1.9 ± 0.3 percentage of radioactivity per gram
same,"Biodistribution, radioactivity in Liver",24 hr post-injection,3.3 ± 1.1 percentage of radioactivity per gram
same,"Biodistribution, radioactivity in Lung",24 hr post-injection,47.2 ± 9.2 percentage of radioactivity per gram
same,"Biodistribution, radioactivity in Muscle",24 hr post-injection,0.3 ± 0.0 percentage of radioactivity per gram
same,"Biodistribution, radioactivity in Small intestine",24 hr post-injection,9.2 ± 6.9 percentage of radioactivity per gram
same,"Biodistribution, radioactivity in Spleen",24 hr post-injection,3.3 ± 1.0 percentage of radioactivity per gram
same,"Biodistribution, radioactivity in Stomach",24 hr post-injection,5.4 ± 1.6 percentage of radioactivity per gram
CCCCCCCCCCCCCCCC[N+]12CC[N]3CC(C)(C)[S][188Re-]31(=[O])[S]C(C)(C)C2 (stereo not shown) [^188Re-HTDD],"Biodistribution, radioactivity in Blood",10 min post-injection,8.1 ± 1.5 percentage of radioactivity per gram
same,"Biodistribution, radioactivity in Fat",10 min post-injection,3.9 ± 1.5 percentage of radioactivity per gram
same,"Biodistribution, radioactivity in Heart",10 min post-injection,9.4 ± 3.0 percentage of radioactivity per gram
same,"Biodistribution, radioactivity in Kidney",10 min post-injection,7.0 ± 1.8 percentage of radioactivity per gram
same,"Biodistribution, radioactivity in Liver",10 min post-injection,11.6 ± 1.7 percentage of radioactivity per gram
same,"Biodistribution, radioactivity in Lung",10 min post-injection,211.3 ± 30.0 percentage of radioactivity per gram
same,"Biodistribution, radioactivity in Muscle",10 min post-injection,1.9 ± 0.3 percentage of radioactivity per gram
same,"Biodistribution, radioactivity in Small intestine",10 min post-injection,3.4 ± 0.5 percentage of radioactivity per gram
same,"Biodistribution, radioactivity in Spleen",10 min post-injection,3.6 ± 0.8 percentage of radioactivity per gram
same,"Biodistribution, radioactivity in Stomach",10 min post-injection,7.4 ± 1.6 percentage of radioactivity per gram
same,"Biodistribution, radioactivity in Blood",30 min post-injection,9.1 ± 5.3 percentage of radioactivity per gram
same,"Biodistribution, radioactivity in Fat",30 min post-injection,2.8 ± 0.5 percentage of radioactivity per gram
same,"Biodistribution, radioactivity in Heart",30 min post-injection,6.0 ± 1.1 percentage of radioactivity per gram
same,"Biodistribution, radioactivity in Kidney",30 min post-injection,6.5 ± 0.9 percentage of radioactivity per gram
same,"Biodistribution, radioactivity in Liver",30 min post-injection,15.9 ± 1.6 percentage of radioactivity per gram
same,"Biodistribution, radioactivity in Lung",30 min post-injection,185.6 ± 20.9 percentage of radioactivity per gram
same,"Biodistribution, radioactivity in Muscle",30 min post-injection,1.5 ± 0.2 percentage of radioactivity per gram
same,"Biodistribution, radioactivity in Small intestine",30 min post-injection,6.5 ± 0.6 percentage of radioactivity per gram
same,"Biodistribution, radioactivity in Spleen",30 min post-injection,3.1 ± 0.2 percentage of radioactivity per gram
same,"Biodistribution, radioactivity in Stomach",30 min post-injection,15.1 ± 2.9 percentage of radioactivity per gram
same,"Biodistribution, radioactivity in Blood",1 hr post-injection,4.2 ± 0.5 percentage of radioactivity per gram
same,"Biodistribution, radioactivity in Fat",1 hr post-injection,2.7 ± 0.6 percentage of radioactivity per gram
same,"Biodistribution, radioactivity in Heart",1 hr post-injection,4.7 ± 0.9 percentage of radioactivity per gram
same,"Biodistribution, radioactivity in Kidney",1 hr post-injection,6.1 ± 1.4 percentage of radioactivity per gram
same,"Biodistribution, radioactivity in Liver",1 hr post-injection,14.4 ± 2.5 percentage of radioactivity per gram
same,"Biodistribution, radioactivity in Lung",1 hr post-injection,177.8 ± 18.4 percentage of radioactivity per gram
same,"Biodistribution, radioactivity in Muscle",1 hr post-injection,1.1 ± 0.2 percentage of radioactivity per gram
same,"Biodistribution, radioactivity in Small intestine",1 hr post-injection,9.3 ± 1.0 percentage of radioactivity per gram
same,"Biodistribution, radioactivity in Spleen",1 hr post-injection,3.0 ± 0.8 percentage of radioactivity per gram
same,"Biodistribution, radioactivity in Stomach",1 hr post-injection,21.0 ± 1.7 percentage of radioactivity per gram
same,"Biodistribution, radioactivity in Blood",3 hr post-injection,2.8 ± 0.5 percentage of radioactivity per gram
same,"Biodistribution, radioactivity in Fat",3 hr post-injection,2.0 ± 0.6 percentage of radioactivity per gram
same,"Biodistribution, radioactivity in Heart",3 hr post-injection,4.5 ± 0.8 percentage of radioactivity per gram
same,"Biodistribution, radioactivity in Kidney",3 hr post-injection,6.2 ± 1.2 percentage of radioactivity per gram
same,"Biodistribution, radioactivity in Liver",3 hr post-injection,9.0 ± 1.8 percentage of radioactivity per gram
same,"Biodistribution, radioactivity in Lung",3 hr post-injection,157.3 ± 28.6 percentage of radioactivity per gram
same,"Biodistribution, radioactivity in Muscle",3 hr post-injection,0.8 ± 0.2 percentage of radioactivity per gram
same,"Biodistribution, radioactivity in Small intestine",3 hr post-injection,12.2 ± 1.3 percentage of radioactivity per gram
same,"Biodistribution, radioactivity in Spleen",3 hr post-injection,2.7 ± 0.1 percentage of radioactivity per gram
same,"Biodistribution, radioactivity in Stomach",3 hr post-injection,19.3 ± 4.0 percentage of radioactivity per gram
same,"Biodistribution, radioactivity in Blood",24 hr post-injection,0.6 ± 0.1 percentage of radioactivity per gram
same,"Biodistribution, radioactivity in Fat",24 hr post-injection,0.8 ± 0.3 percentage of radioactivity per gram
same,"Biodistribution, radioactivity in Heart",24 hr post-injection,2.2 ± 0.8 percentage of radioactivity per gram
same,"Biodistribution, radioactivity in Kidney",24 hr post-injection,3.3 ± 0.7 percentage of radioactivity per gram
same,"Biodistribution, radioactivity in Liver",24 hr post-injection,5.6 ± 1.0 percentage of radioactivity per gram
same,"Biodistribution, radioactivity in Lung",24 hr post-injection,118.0 ± 19.5 percentage of radioactivity per gram
same,"Biodistribution, radioactivity in Muscle",24 hr post-injection,0.4 ± 0.1 percentage of radioactivity per gram
same,"Biodistribution, radioactivity in Small intestine",24 hr post-injection,6.2 ± 3.4 percentage of radioactivity per gram
same,"Biodistribution, radioactivity in Spleen",24 hr post-injection,9.3 ± 5.2 percentage of radioactivity per gram
same,"Biodistribution, radioactivity in Stomach",24 hr post-injection,5.5 ± 1.7 percentage of radioactivity per gram
